Measurements from ChEMBL document CHEMBL2176989, “Design, synthesis, and pharmacological evaluation of piperidin-4-yl amino aryl sulfonamides: novel, potent, selective, orally active, and brain penetrant 5-HT₆ receptor antagonists” (J Med Chem, 2012).
Calls of active or inactive are those of the source. The calls are words filed in the database; no cut-off is given here.

Key:
[1] = molecular target: Sodium-dependent dopamine transporter (Homo sapiens, UniProt Q01959); assay: Binding affinity to dopamine transporter
[2] = molecular target: Sodium-dependent serotonin transporter (Homo sapiens, UniProt P31645); assay: Binding affinity to SERT
[3] = AUC (0 to 24 hrs) in fasted Wistar rat at 5 mg/kg, po; type: ADME, organism-based; set-up: time < 24 hr, dose 5 mg/kg, route oral; details: plasma
[4] = molecular target: T1, Alpha-1B adrenergic receptor (Homo sapiens, UniProt P35368); assay: Binding affinity to adrenergic alpha1B receptor
T1 sequence (P35368 whole entry): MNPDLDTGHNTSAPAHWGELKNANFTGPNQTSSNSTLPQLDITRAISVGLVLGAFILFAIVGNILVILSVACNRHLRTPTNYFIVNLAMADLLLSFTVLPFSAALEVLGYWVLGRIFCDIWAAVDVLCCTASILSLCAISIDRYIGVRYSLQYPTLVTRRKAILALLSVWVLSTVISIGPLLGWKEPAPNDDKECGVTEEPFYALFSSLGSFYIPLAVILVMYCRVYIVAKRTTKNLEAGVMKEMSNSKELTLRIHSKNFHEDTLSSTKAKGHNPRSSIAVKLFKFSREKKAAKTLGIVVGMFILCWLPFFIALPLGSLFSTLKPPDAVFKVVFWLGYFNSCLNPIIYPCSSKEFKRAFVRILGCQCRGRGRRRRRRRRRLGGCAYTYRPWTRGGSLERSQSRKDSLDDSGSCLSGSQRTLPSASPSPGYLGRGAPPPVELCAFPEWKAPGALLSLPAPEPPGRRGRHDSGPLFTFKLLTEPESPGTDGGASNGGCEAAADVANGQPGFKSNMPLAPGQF

[5] = AUC (0 to 24 hrs) in Wistar rat at 5 mg/kg, iv; type: ADME, organism-based; set-up: time < 24 hr, dose 5 mg/kg, route intravenous; details: plasma
[6] = Cmax in fasted Wistar rat at 5 mg/kg, po; type: ADME, organism-based; set-up: dose 5 mg/kg, route oral; details: in vivo
[7] = AUC (0 to 24 hrs) in fasted beagle dog at 3 mg/kg, po; type: ADME, organism-based, Canis lupus familiaris; set-up: time < 24 hr, dose 3 mg/kg, route oral; details: plasma
D(2) dopamine receptor = D(2) dopamine receptor (Homo sapiens, UniProt P14416); assay: Binding affinity to dopamine D2 receptor
Rattus norvegicus [8] = assay: Procognitive activity in Wistar rat assessed as increase in acetylcholine level in medial prefrontal cortex at 10 mg/kg, sc administered as an acute dose measured up to 4 hrs by brain microdialysis method; type: functional, organism-based; set-up: dose 10 mg/kg
[9] = molecular target: 5-hydroxytryptamine receptor 4 (Homo sapiens, UniProt Q13639); assay: Binding affinity to 5HT4 receptor
[10] = Tmax in fasted beagle dog at 3 mg/kg, po; type: ADME, organism-based, Canis lupus familiaris; set-up: dose 3 mg/kg, route oral; details: in vivo
[11] = Apparent volume of distribution in Wistar rat at 5 mg/kg, iv; type: ADME, organism-based; set-up: dose 5 mg/kg, route intravenous; details: in vivo, read-out: Vz
[12] = AUC (0 to 24 hrs) in beagle dog at 1 mg/kg, iv; type: ADME, organism-based, Canis lupus familiaris; set-up: time < 24 hr, dose 1 mg/kg, route intravenous; details: plasma
[13] = Oral bioavailability in fasted beagle dog at 3 mg/kg; type: ADME, organism-based, Canis lupus familiaris; details: in vivo
[14] = Apparent volume of distribution in beagle dog at 1 mg/kg, iv; type: ADME, organism-based, Canis lupus familiaris; set-up: dose 1 mg/kg, route intravenous; details: in vivo, read-out: Vz
Rattus norvegicus [15] = assay: Procognitive activity in Wistar rat assessed as reversal of time delay-induced memory deficit at 0.3 mg/kg, po by object recognition test; type: functional, organism-based; set-up: dose 0.3 mg/kg
[16] = molecular target: 5-hydroxytryptamine receptor 6 (Homo sapiens) (UniProt P50406); assay: Antagonist activity at human recombinant 5HT6 receptor expressed in CHO cells assessed as inhibition of 5HT-induced luciferase activity after 4 hrs by reporter gene assay relative to control; type: functional, cell-based
Rattus norvegicus [17] = assay: Procognitive activity in Wistar rat assessed as reversal of time delay-induced memory deficit at 1 to 10 mg/kg, po by object recognition test; type: functional, organism-based
Cytochrome P450 2D6 = Cytochrome P450 2D6 (Homo sapiens, UniProt P10635); assay: Inhibition of CYP2D6 in human liver microsomes using dextromethorphan as substrate after 10 mins by LC-MS/MS analysis in presence of NADPH
[18] = molecular target: 5-hydroxytryptamine receptor 2A (Homo sapiens, UniProt P28223); assay: Binding affinity to 5HT2A receptor
[19] = Drug metabolism in Wistar rat liver microsomes at 2.5 uM at 30 mins by LC-MS/MS analysis; type: ADME, Microsome; details: read-out: Drug metabolism
[20] = Drug metabolism in human liver microsomes at 2.5 uM at 30 mins by LC-MS/MS analysis; type: ADME, Microsome; details: read-out: Drug metabolism
[21] = Clearance in beagle dog at 1 mg/kg, iv; type: ADME, organism-based, Canis lupus familiaris; set-up: dose 1 mg/kg, route intravenous; details: in vivo
[22] = molecular target: T2, 5-hydroxytryptamine receptor 1A (Homo sapiens, UniProt P08908); assay: Binding affinity to 5HT1A receptor
T2 sequence (P08908 whole entry): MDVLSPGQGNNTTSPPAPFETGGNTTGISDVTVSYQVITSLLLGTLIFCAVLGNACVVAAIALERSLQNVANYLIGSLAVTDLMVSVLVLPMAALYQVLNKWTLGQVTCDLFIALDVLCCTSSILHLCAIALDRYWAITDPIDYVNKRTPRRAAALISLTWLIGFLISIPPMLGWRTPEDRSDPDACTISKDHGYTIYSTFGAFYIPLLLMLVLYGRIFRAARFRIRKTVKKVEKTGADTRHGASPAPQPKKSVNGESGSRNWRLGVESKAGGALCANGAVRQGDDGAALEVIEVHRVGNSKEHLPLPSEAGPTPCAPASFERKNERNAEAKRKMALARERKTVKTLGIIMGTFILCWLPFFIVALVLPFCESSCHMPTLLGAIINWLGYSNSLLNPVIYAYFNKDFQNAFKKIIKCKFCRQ

Rattus norvegicus [23] = assay: Procognitive activity in sc dosed Wistar rat assessed as increase in acetylcholine level in medial prefrontal cortex administered as an acute dose measured up to 4 hrs by brain microdialysis method; type: functional, organism-based
[24] = molecular target: 5-hydroxytryptamine receptor 6 (Homo sapiens) (UniProt P50406); assay: Antagonist activity at human recombinant 5HT6 receptor expressed in CHO cells assessed as inhibition of 5HT-induced luciferase activity after 4 hrs by reporter gene assay; type: functional, cell-based
Histamine H1 receptor = Histamine H1 receptor (Homo sapiens, UniProt P35367); assay: Binding affinity to histamine H1 receptor
[25] = molecular target: T3, 5-hydroxytryptamine receptor 2C (Homo sapiens, UniProt P28335); assay: Binding affinity to 5HT2C receptor
T3 sequence (P28335 whole entry): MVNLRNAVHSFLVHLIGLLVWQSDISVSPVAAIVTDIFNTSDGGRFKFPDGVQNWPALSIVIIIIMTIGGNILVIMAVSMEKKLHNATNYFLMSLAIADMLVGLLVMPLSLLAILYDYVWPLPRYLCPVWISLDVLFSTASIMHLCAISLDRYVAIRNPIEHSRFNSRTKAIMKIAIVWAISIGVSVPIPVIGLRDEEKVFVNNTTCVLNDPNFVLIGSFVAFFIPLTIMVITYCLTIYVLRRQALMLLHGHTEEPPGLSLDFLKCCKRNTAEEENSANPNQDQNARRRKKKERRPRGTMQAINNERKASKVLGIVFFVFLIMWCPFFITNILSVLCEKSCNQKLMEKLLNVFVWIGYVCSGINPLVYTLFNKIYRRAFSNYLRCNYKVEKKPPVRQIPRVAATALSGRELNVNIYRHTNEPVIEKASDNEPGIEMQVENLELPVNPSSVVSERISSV

[26] = Oral bioavailability in fasted Wistar rat at 5 mg/kg; type: ADME, organism-based; details: in vivo
[27] = Cmax in fasted beagle dog at 3 mg/kg, po; type: ADME, organism-based, Canis lupus familiaris; set-up: dose 3 mg/kg, route oral; details: in vivo
[28] = Clearance in Wistar rat at 5 mg/kg, iv; type: ADME, organism-based; set-up: dose 5 mg/kg, route intravenous; details: in vivo

Chain of 5-hydroxytryptamine receptor 6 (Homo sapiens) (P50406 whole entry): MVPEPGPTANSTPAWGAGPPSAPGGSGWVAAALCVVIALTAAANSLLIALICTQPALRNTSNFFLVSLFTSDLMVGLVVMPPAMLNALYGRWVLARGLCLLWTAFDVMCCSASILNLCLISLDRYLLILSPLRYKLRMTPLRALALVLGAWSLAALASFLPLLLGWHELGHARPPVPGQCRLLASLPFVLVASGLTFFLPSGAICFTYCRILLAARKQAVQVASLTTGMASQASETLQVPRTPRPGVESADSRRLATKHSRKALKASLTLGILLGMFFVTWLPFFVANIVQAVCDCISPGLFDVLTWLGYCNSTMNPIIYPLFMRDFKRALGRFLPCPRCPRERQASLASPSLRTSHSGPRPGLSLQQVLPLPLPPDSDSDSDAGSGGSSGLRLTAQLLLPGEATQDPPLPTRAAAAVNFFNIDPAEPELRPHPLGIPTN
Chain of 5-hydroxytryptamine receptor 2A (P28223 whole entry): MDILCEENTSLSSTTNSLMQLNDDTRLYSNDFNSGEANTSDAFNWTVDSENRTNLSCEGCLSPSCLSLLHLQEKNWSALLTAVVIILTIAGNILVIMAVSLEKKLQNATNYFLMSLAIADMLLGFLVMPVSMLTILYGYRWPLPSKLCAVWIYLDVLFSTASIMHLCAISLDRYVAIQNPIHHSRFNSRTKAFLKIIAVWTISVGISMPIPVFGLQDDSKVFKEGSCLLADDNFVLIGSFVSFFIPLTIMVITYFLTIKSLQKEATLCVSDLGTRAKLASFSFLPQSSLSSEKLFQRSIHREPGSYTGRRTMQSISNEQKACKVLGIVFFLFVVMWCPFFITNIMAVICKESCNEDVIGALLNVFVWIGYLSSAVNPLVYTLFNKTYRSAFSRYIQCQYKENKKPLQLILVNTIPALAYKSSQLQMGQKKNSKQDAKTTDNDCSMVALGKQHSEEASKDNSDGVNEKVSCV
Chain of Cytochrome P450 2D6 (P10635 whole entry): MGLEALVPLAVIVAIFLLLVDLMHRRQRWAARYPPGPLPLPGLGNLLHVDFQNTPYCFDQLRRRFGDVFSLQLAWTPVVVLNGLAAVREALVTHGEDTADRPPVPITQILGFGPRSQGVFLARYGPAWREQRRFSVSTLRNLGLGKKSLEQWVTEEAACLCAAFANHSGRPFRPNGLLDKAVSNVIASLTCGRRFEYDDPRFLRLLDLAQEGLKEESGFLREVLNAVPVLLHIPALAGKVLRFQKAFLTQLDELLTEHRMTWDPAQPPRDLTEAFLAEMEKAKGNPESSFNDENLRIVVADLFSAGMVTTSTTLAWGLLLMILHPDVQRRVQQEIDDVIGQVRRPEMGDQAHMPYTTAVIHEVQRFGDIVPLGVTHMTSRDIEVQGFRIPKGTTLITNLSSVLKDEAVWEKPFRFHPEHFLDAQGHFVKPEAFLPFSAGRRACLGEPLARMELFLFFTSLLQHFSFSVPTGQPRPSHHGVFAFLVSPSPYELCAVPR
Chain of D(2) dopamine receptor (P14416 whole entry): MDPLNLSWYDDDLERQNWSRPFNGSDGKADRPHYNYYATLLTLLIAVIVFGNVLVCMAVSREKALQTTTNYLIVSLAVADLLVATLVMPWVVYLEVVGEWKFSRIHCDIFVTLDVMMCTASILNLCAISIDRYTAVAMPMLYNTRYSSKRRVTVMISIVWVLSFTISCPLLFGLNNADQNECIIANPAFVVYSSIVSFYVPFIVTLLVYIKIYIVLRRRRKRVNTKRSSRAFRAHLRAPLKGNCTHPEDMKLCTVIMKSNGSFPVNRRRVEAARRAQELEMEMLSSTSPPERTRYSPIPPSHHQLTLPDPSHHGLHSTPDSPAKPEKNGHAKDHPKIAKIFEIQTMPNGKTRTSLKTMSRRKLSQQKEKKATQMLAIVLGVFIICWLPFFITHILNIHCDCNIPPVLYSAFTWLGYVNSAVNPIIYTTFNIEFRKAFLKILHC
Chain of Sodium-dependent serotonin transporter (P31645 whole entry): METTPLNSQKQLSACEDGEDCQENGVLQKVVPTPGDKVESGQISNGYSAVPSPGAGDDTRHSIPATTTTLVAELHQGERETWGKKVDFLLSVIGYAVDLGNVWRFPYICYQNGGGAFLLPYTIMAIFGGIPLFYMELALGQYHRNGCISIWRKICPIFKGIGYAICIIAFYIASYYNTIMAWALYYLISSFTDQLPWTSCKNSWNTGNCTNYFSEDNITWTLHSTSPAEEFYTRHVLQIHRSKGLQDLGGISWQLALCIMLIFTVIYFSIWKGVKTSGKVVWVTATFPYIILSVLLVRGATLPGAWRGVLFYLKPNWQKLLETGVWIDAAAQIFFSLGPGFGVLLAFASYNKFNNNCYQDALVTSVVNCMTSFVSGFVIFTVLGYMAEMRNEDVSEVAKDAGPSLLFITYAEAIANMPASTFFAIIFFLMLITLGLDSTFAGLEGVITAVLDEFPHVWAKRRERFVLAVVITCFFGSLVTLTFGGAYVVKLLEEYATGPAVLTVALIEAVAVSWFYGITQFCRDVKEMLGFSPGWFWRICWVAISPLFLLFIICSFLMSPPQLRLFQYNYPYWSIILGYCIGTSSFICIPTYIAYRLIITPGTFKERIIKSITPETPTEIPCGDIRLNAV
Chain of Histamine H1 receptor (P35367 whole entry): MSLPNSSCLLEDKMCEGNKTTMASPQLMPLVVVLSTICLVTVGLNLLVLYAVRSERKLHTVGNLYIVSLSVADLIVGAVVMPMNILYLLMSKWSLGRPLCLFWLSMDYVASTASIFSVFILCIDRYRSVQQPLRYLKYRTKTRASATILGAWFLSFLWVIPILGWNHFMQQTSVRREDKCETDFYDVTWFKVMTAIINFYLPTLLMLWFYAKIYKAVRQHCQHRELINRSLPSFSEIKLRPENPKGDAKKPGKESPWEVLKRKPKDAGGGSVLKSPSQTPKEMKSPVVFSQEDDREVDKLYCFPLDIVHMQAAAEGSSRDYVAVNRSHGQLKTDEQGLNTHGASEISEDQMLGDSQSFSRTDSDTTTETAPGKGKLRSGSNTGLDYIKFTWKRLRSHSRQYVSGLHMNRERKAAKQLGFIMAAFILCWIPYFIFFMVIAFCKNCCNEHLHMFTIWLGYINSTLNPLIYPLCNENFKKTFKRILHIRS
Chain of Sodium-dependent dopamine transporter (Q01959 whole entry): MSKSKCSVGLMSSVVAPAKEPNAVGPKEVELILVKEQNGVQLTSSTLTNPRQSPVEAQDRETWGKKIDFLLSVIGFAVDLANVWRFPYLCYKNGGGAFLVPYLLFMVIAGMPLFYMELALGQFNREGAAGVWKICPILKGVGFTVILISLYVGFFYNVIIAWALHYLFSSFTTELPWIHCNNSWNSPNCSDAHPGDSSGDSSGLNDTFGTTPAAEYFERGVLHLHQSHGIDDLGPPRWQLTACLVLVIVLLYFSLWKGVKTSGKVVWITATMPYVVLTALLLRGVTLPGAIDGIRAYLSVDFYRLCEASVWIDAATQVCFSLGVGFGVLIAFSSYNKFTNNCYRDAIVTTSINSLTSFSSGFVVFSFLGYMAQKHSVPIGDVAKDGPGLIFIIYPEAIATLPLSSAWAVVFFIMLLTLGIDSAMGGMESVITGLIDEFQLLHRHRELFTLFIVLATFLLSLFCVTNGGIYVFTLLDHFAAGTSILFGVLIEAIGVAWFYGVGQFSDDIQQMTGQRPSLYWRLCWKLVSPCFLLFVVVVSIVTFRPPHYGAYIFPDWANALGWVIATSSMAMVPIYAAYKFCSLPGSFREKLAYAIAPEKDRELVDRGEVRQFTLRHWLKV
Chain of 5-hydroxytryptamine receptor 4 (Q13639 whole entry): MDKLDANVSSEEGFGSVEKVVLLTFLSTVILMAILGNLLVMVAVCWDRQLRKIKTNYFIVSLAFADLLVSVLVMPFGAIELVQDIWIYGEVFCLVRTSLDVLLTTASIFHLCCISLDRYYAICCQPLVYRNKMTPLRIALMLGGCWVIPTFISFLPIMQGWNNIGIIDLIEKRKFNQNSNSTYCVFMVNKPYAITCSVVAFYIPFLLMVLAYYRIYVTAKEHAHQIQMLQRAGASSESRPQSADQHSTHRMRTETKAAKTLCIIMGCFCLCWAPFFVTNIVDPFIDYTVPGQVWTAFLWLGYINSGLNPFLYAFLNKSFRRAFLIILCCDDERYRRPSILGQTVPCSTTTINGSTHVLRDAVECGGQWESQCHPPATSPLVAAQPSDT

SMILES: COc1ccc(S(=O)(=O)n2cc(C)c3cc(Cl)cnc32)cc1NC1CCN(C)CC1
- Ki [1]: 3220 nM
- Ki [2]: > 10000 nM
- AUC(0-t) at 24 h [3]: 389 ng·h/mL
- Ki [4]: 3790 nM
- AUC(0-t) at 24 h [5]: 1310 ng·h/mL
- Cmax [6]: 156 ng/mL
- AUC(0-t) at 24 h [7]: 3630 ng·h/mL
- Ki (D(2) dopamine receptor): 1810 nM
- Activity (Rattus norvegicus [8]): Active
- EC50 [9]: > 10000 nM
- Tmax [10]: 1.7 h
- Vd [11]: 10 L/kg
- AUC(0-t) at 24 h [12]: 1400 ng·h/mL
- bioavailability [13]: 92%
- Vd [14]: 2.1 L/kg
- Activity (Rattus norvegicus [15]): Active
- Imax [16]: 100%
- Activity (Rattus norvegicus [17]): Active
- IC50 (Cytochrome P450 2D6): > 45000 nM
- Ki [18]: 2370 nM
- metabolised at 0.5 h, 2.5 µM [19]: 76%
- metabolised at 0.5 h, 2.5 µM [20]: 72%
- clearance [21]: 12 mL/min/kg
- EC50 [22]: > 10000 nM
- Activity (Rattus norvegicus [23]): Dose-dependent effect
- Kb [24]: 0.04 nM
- Ki (Histamine H1 receptor): 586 nM
- Ki [25]: 2240 nM
- bioavailability [26]: 29%
- Cmax [27]: 549 ng/mL
- clearance [28]: 64 mL/min/kg
